For experiment [1], the system named is AMPK, the downstream intracellular mediator of adiponectin receptors. As to the kind of experiment: Concentration-dependent activation of AMPK in HT22 neuronal cells (western blot, pAMPK/AMPK). It counts as cell-based, mouse. Conditions: HT22 cells, 0, 10, 25 nM, 30 minutes, serum-free DMEM. As for the experimental part:
A rabbit anti-phospho-AMPK polyclonal antibody (pAMPK) (Cell Signaling Technology, Ltd.), a rabbit anti-AMPK polyclonal antibody (Cell Signaling Technology, Ltd.) and an HRP conjugated mouse monoclonal anti-β-actin antibody (Cell Signaling Technology, Ltd.) were used as primary antibodies after being suitably diluted. An HRP-labeled rabbit IgG goat antibody (Dako, Glostrup, Denmark) was used as a secondary antibody.
Under conditions of 5% CO2 at 37° C., mouse neuronal cells (HT22) were maintained and expanded in a Dulbecco-modified high-glucose Eagle medium (DMEM, GIBCO, Invitrogen, Life Technologies Hong Kong Ltd.), containing 10% fetal bovine serum (FBS, HiClone, Cytiva Co., Ltd.) and 1% v/v penicillin/streptomycin (Life Technologies Hong Kong Ltd.).
The compound was dissolved in DMSO (Sigmaldrich Co Ltd.) at a concentration of 10 mM as a stock. […]
Each cell sample was homogenized in ice-cold lysis buffer (Cell Signaling Technology, USA), containing a cocktail of protease inhibitors, by ultrasonic homogenizer before being centrifuged at 12,000×g, 4° C. for 15 min. […] The protein concentration of each fraction was measured using the BioRad Protein Assay reagent (Bio-Rad Laboratories, Inc.). […] The densitometric analysis of the bands detected by the chemiluminescent reaction was quantified by the Image J software (NIH: National Institutes of Health). […]

Experiment [2] has as its target T1, AdipoR1 (Mus musculus, UniProt Q91VH1).
T1 construct: siAdipoR1, siAdipoR2 were prepared in DMEM to break down the expression of AdipoR1 and AdipoR2, respectively; endogenous in cells; host or cells: HT22 mouse neuronal cells
T1 sequence (Q91VH1 1-375): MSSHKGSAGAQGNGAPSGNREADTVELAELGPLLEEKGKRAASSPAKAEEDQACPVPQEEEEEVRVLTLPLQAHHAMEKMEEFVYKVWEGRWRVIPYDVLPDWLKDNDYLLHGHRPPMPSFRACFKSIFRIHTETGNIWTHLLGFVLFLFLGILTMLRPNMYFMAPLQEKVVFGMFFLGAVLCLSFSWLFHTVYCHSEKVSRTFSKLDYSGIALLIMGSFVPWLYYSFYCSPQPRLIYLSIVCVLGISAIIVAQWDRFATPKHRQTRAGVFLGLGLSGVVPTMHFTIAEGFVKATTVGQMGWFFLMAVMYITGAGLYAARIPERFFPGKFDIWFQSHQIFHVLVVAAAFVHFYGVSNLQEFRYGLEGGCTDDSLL
As to the kind of experiment: AMPK activation by the compound in HT22 cells under AdipoR1 knock-down (siAdipoR1). Type of experiment: cell-based. The note with it: HT22 cells transfected with siAdipoR1, compound 25 nM, 30 minutes. The source says:
A rabbit adiponectin anti-receptor 1 polyclonal antibody (AdipoR1)(Abcam, Cambridge, MA, USA), a rabbit adiponectin anti-receptor 2 polyclonal antibody (AdipoR2) (Boster Biological Technology, USA), an anti-phospho-AMPK (pAMPK) rabbit polyclonal antibody (Cell Signaling Technology, Ltd.), an anti-AMPK rabbit polyclonal antibody (Cell Signaling Technology, Ltd.) and an HRP conjugated mouse monoclonal anti-§ (beta)-actin antibody (Cell Signaling Technology, Ltd.) were used as primary antibodies after being suitably diluted. An HRP conjugated goat anti-rabbit IgG antibody (Dako, Glostrup, Denmark) was used as secondary antibody.
Under conditions of 5% CO2 at 37° C., mouse neuronal cells (HT22) are maintained and expanded in a Dulbecco-modified high-glucose Eagle medium (DMEM, GIBCO, Invitrogen, Life Technologies Hong Kong Ltd.), containing 10% fetal bovine serum (FBS, HiClone, Cytiva Co., Ltd.) and 1% v/v penicillin/streptomycin (Life Technologies Hong Kong Ltd.).
SiRNA scramble (non-targeting RNA), siAdipoR1 and siAdipoR2 were purchased from Santa Cruz Biotechnology. siAdipoR1, siAdipoR2 were prepared in DMEM to break down the expression of AdipoR1 and AdipoR2, respectively. […]
The extraction of each soluble fraction and the quantification of the proteins in each soluble fraction by western blot analysis were performed according to procedures similar to section 1.4 of Experiment 1.

Experiment [3] concerns NSC-34 cells. As to the kind of experiment: Viability of NSC-34 neuronal cells under high glucose (hyperglycemia-induced apoptosis). It counts as cell-based. The note with it: pre-treatment 25 nM, then 100 mM glucose. The protocol: A high glucose level is the cause of neuronal apoptosis leading to diabetic neuropathy. To examine whether SS-SRGR-(+7) can protect neurons from the hyperglycemic condition, neuronal cells in different glucose concentrations (0, 25, 50, 100 mM) were grown. […] NSC-34 neurons were then pre-treated with or without SS-SRGR-(+7)(25 nM) prior to incubation with 100 mM glucose.

Structures are written as SMILES.

These results are taken from patent publication US20240197699A1, “BE[…] FOR USE IN THERAPY” (MOLECULAR RESEARCH PHARMACT S.R.L., priority 2021, published 2024).

Regarding `CC1C2Cc3ccc(O)cc3C1(C)CCN2CCC(C(=O)N(C)C)(c1ccccc1)c1ccccc1` (stereo not drawn) [SS-SRGR-(+7), 4-(8-hydroxy-6,11-dimethyl-1,4,5,6-tetrahydro-2,6-methane-3-benzazocin-3(2H)-yl)-N,N-dimethyl-2,2-diphenylbutanamide], in experiment [1], the “amounts of pAMPK proteins (pAMPK/AMPK ratio, densitometry)” value was “increase significantly in a concentration-dependent manner”. In addition, the “SS-SRGR-(+7)-induced AMPK activation under Adipo-R1 knock-down compared to siCtrl-transfected HT22 cells” value in experiment [2] is “significantly reduced”. Further, the “Cell viability of pretreated NSC34 cells versus vehicle-pretreated NSC34” value in experiment [3] is listed as “significantly higher”.
